Experimental data as given in patent US20250059187A1, “COVALENTLY BINDING INHIBITORS OF G12S, G12D AND/OR G12E MUTANTS OF K-RAS GTPASE” (The Regents of the University of California, priority 2021, published 2025).

How the values were obtained:
K-Ras(G12D)·GDP = molecular target: T1, K-Ras(G12D)·GDP (Homo sapiens, UniProt P01116, G12D); experiment: Detection of covalent modification of K-Ras(G12D) by tandem mass spectrometry; format: binding; settings: 1 mM or 10 mM, 23° C., 1 h
T1 construct: human K-Ras (G12D, aa 1-169); 6xHis tag + TEV cleavage site (N, cleaved yes); made in house; host or cells: E. coli BL21(DE3)
Protocol: K-Ras(G12D) protein (1 μM, 100 μL) in PBS 7.4 was treated with β-propiolactone (1 mM or 10 mM) at 23° C. for 1 h. The reaction buffer was exchanged into Digestion Buffer (20 mM Tris 8.0, 2 mM CaCl2)) using a Zeba 0.5-mL desalting column (7K MWCO, Thermo Scientific). 80 μL of the resulting protein solution was mixed with 2 μL 200 mM DTT. The mixture was heated at 56° C. for 30 min. After cooling to 23° C., 4 μL 200 mM iodoacetamide was added. After 15 min at 23° C., 2.1 μL 200 mM DTT was added. After an additional 5 min, 500 ng trypsin was added to the mixture, and the samples were incubated at 37° C. overnight. 5 μL 10% formic acid was added to stop the digestion (final formic acid concentration: 0.5% v/v). The tryptic peptides were enriched and desalted using OMIX C18 tips (Agilent) following the manufacturer's instructions. Peptides (0.5% of total) were resolved on an Easy-Spray nano-HPLC column (Thermo Fisher ES800A, 150 mm length, […], […]) over a 54-min gradient of 2-37% acetonitrile-water+0.1% formic acid and analyzed by a Q-Exactive hybrid quadrupole-orbitrap mass spectrometer (MS1 resolution 70,000, AGC target: 3e6, range: 350-1500 m/z; MS2 resolution 17,500, AGC target: 5e4, max injection time: 120 ms, Top 10, NCE: 25%, dynamic exclusion: 15 s). […]

K-Ras G12D [1] = molecular target: T2, K-Ras G12D (Homo sapiens, UniProt P01116, G12D); experiment: Differential scanning fluorimetry of K-Ras(G12D) and its covalent adducts; format: binding
T2 construct: human K-Ras (G12D, aa 1-169); 6xHis tag + TEV cleavage site (N, cleaved yes); made in house; host or cells: E. coli BL21(DE3)
Protocol: The protein of interest was diluted with SEC Buffer [20 mM HEPES 7.5, 150 mM NaCl, 1 mM MgCl2] to 8 μM. This solution was dispensed into wells of a white 96-well PCR plate in triplicate (25 μL/well). Fluorescence was measured at 0.5-° C. temperature intervals every 30 s from 25° C. to 95° C. on a Bio-Rad CFX96 qPCR system using the FRET setting. Each data set was normalized to the highest fluorescence and the normalized fluorescence reading was plotted against temperature in GraphPad Prism 8.0. Tm values were determined as the temperature(s) corresponding to the maximum(ma) of the first derivative of the curve.

[2] = molecular target: T3, Raf-RBD / K-Ras(G12D)·GppNHp (Homo sapiens, UniProt P01116, G12D); experiment: Biolayer interferometry, Raf-RBD binding of the K-Ras(G12D)·GppNHp adduct; settings: compared to unmodified K-Ras(G12D)·GppNHp
T3 construct: human K-Ras (G12D, aa 1-169); 6xHis tag + TEV cleavage site (N); made in house; host or cells: E. coli BL21(DE3) for K-Ras

[3] = tested on: KRAS G12D mutation cancer cell lines; experiment: Growth inhibition of KRAS G12D cancer cell lines; format: cell-based
Protocol: Cells were seeded into 96-well white flat bottom plates (1,000 cells/well) (Corning) and incubated overnight. Cells were treated with the indicated compounds in a nine-point threefold dilution series (100 μL final volume) and incubated for 72 h. Cell viability was assessed using a commercial CellTiter-Glo (CTG) luminescence-based assay (Promega). Briefly, the 96-well plates were equilibrated to room temperature before the addition of diluted CTG reagent […] (1:4 CTG reagent:PBS). Plates were placed on an orbital shaker for 30 min before recording luminescence using a Spark 20M (Tecan) plate reader.

[4] = molecular target: T4, interaction between Raf-RBD and K-Ras(G12D) (Homo sapiens, UniProt P01116, G12D); experiment: Time-resolved fluorescence energy transfer assay, Raf-RBD and K-Ras(G12D); format: biochemical; settings: dose-dependent
T4 construct: human K-Ras (G12D, aa 1-169); 6xHis tag + TEV cleavage site (N); made in house; host or cells: E. coli BL21(DE3) for K-Ras

wild type K-Ras [5] = molecular target: T5, wild type K-Ras (Homo sapiens, UniProt P01116); experiment: Covalent modification of recombinant wild-type K-Ras by whole-protein mass spectrometry; format: binding; settings: 10 μM, 23° C., after 1 h
T5 construct: human K-Ras (wildtype, aa 1-169); 6xHis tag + TEV cleavage site (N, cleaved yes); made in house; host or cells: E. coli BL21(DE3)

K-Ras G12D [6] = molecular target: T2, K-Ras G12D; experiment: Covalent modification of recombinant K-Ras(G12D) by whole-protein mass spectrometry; format: binding; settings: 10 μM, 23° C.
Protocol: (§1) Test compounds were prepared as 100× stock solutions in DMSO. K-Ras proteins were diluted with SEC Buffer (20 mM HEPES 7.5, 150 mM NaCl, 1 mM MgCl2) to 400 nM or 1 μM. In a typical reaction, 0.5 μL 100× compound stock was mixed with 50 μL diluted K-Ras protein, and the resulting mixture was incubated for the desired amount of time. The extent of modification was assessed by electrospray mass spectrometry using a Waters Xevo G2-XS system equipped with an Acquity UPLC BEH C4 1.7 μm column. The mobile phase was a linear gradient of 5-95% acetonitrile/water+0.05% formic acid. For kinetic measurements, a 2× compound solution was first prepared in SEC Buffer, which was then mixed with 400 nM K-Ras(G12D) protein at 1:1 (v/v) ratio. Injection time stamps were used to calculate elapsed time.

K-Ras G12D [7] = molecular target: T2, K-Ras G12D; experiment: Stability of the adduct between K-Ras(G12D) and the compound
K-Ras(G13D) = molecular target: T6, K-Ras(G13D) (Homo sapiens, UniProt P01116, G13D); experiment: Covalent modification of recombinant K-Ras(G13D) by whole-protein mass spectrometry; format: binding; settings: 10 μM, 23° C., after 1 h
T6 construct: human K-Ras (G13D, aa 1-169); 6xHis tag + TEV cleavage site (N, cleaved yes); made in house; host or cells: E. coli BL21(DE3)
Protocol: as §1

[8] = molecular target: T7, interaction between Raf-RBD and wildtype K-Ras (Homo sapiens, UniProt P01116); experiment: Time-resolved fluorescence energy transfer assay, Raf-RBD and wildtype K-Ras; format: biochemical
T7 construct: human K-Ras (wildtype, aa 1-169); 6xHis tag + TEV cleavage site (N); made in house; host or cells: E. coli BL21(DE3) for K-Ras

K-Ras G12E [9] = molecular target: T8, K-Ras G12E (Homo sapiens, UniProt P01116, G12E); experiment: Covalent modification of recombinant K-Ras(G12E) by whole-protein mass spectrometry; format: binding; settings: 10 μM, 23° C.
T8 construct: human K-Ras (G12E, aa 1-169); 6xHis tag + TEV cleavage site (N, cleaved yes); made in house; host or cells: E. coli BL21(DE3)
Protocol: as §1

K-Ras(G12S) = K-Ras(G12S) (Homo sapiens, UniProt P01116, G12S); experiment: Covalent modification of recombinant K-Ras(G12S) by whole-protein mass spectrometry; format: binding; parameters: human K-Ras (G12S, aa 1-169); 6xHis tag + TEV cleavage site (N, cleaved yes); made in house; host or cells: E. coli BL21(DE3); settings: 10 μM compound, 23° C.
In short: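 Recombinant K-Ras diluted to 400 nM or 1 μM in 20 mM HEPES pH 7.5, 150 mM NaCl, 1 mM MgCl2 and incubated with compound added from 100× DMSO stock. Modification extent measured by electrospray whole-protein mass spectrometry; kinetics used 1:1 mixing with 400 nM protein and injection time stamps for elapsed time.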

wild type K-Ras [10] = molecular target: T5, wild type K-Ras; experiment: Covalent modification of test protein after incubation with compound; format: binding; settings: 24-h incubation with 100 μM compound at 23° C. at pH 7.5
K-Ras G12D [11] = molecular target: T2, K-Ras G12D; experiment: as above; format: binding; settings: 24-h incubation with 100 μM compound at 23° C. at pH 7.5
K-Ras G12E [12] = molecular target: T8, K-Ras G12E; experiment: as above; format: binding; settings: 24-h incubation with 100 μM compound at 23° C. at pH 7.5

SMILES	alkylation of Asp12 in peptide LVVVGAD*GVGK (K-Ras(G12D)·GDP)	ΔTm of K-Ras(G12D)·GDP on covalent modification (K-Ras G12D [1]; GDP state)	ΔTm of K-Ras(G12D)·GppNHp on covalent modification (K-Ras G12D [1]; GppNHp state)	binding of the K-Ras(G12D)·GppNHp adduct to Raf-RBD [2]	growth of KRAS G12D cancer cell lines [3]	interaction between Raf-RBD and K-Ras(G12D) [4]	modification of K-Ras(wildtype)·GDP (wild type K-Ras [5])	activity against GppNHp-bound K-Ras(G12D) (K-Ras G12D [6])	time to full modification of K-Ras(G12D)·GDP (K-Ras G12D [6])	stability of the K-Ras(G12D) adduct over pH (K-Ras G12D [7])	stability of the K-Ras(G12D) adduct with DTT (K-Ras G12D [7]; 1 mM DTT, 23° C.)	modification of K-Ras(G13D)·GDP (K-Ras(G13D))	interaction between Raf-RBD and wildtype K-Ras [8]	reactivity with K-Ras(G12E)·GDP (K-Ras G12E [9])	covalent reaction with K-Ras(G12S)·GDP (K-Ras(G12S))	% covalent modification of wild type K-Ras (wild type K-Ras [10])	% covalent modification of K-Ras G12D (K-Ras G12D [11])	% covalent modification of K-Ras G12E (K-Ras G12E [12])
O=C1CCO1 [β-propiolactone]	the mutant aspartate was covalently alkylated by a 2-carboxylethyl group	–	–	–	–	–	–	–	–	–	–	–	–	–	–	–	–	–
C#Cc1cccc2cccc(-c3ncc4c(N5C[C@H]6CC[C@@H](C5)N6C(=O)C5CC(=O)O5)nc(OCC56CCCN5CCC6)nc4c3F)c12 (mixture of isomers) [Compound 1]	–	+10.3 °C	+2.5 °C	substantially decreased binding to Raf-RBD	inhibited growth of KRAS^G12D cancer cell lines	inhibited the interaction between Raf-RBD and K-Ras(G12D)	no detectable modification	also active against the GppNHp-bound K-Ras(G12D)	less than 15 minutes	stable over a range of pH (5.0-8.5)	did not degrade in the presence of 1 mM DTT	6.5±0.3%	not wildtype K-Ras	markedly reduced reactivity	did not react with K-Ras(G12S)·GDP	–	–	–
C#Cc1cccc2cccc(-c3ncc4c(N5C[C@H]6CC[C@@H](C5)N6C(=O)C5CC(=O)O5)nc(OCC56CCCN5CCC6)nc4c3F)c12 (mixture of isomers) [(RS)-1]	–	–	–	–	–	disrupted Ras-RafRBD binding	–	–	–	–	–	–	–	–	–	0%	100%	6.3%
